Values quoted from earlier work in US12605362B2, “Eletriptan hydrobromide for treatment of spinal cord injury and improvement of locomotor function” (TECHNOPHAGE, INVESTIGAÇÃO E DESENVOLVIMENTO EM …, priority 2020, dated 2026).

Details: in the presence of the selective 5-HT2 antagonists SB204741 and SB242084; cited from earlier work

c1ccc2nc(N3CCNCC3)ccc2c1 [quipazine]
locomotor-like movements: induction in locomotor-like movements
